We go through three compounds from publication PMC11143257, “Atomistic mechanism of coupling between cytosolic sensor domain and selectivity filter in TREK K2P channels” (Nature Communications, 2024).

One experiment has as its system WT hTREK-2. In words: Direct application of PKC inhibitor, oocytes. The class given is cell-based, human. The conditions noted are these: oocytes expressing WT hTREK-2. The text has this:
This study by Türkaydin and colleagues combines functional studies of TREK channels with MD simulations and proposes an explanation for the molecular mechanism of phosphorylation-mediated regulation of channel activity, and a general framework for how down-to-up transitions of TM4 is coupled to activation of the SF gate. Using elegant MTS-modification, phospho-mimetic mutagenesis, and norfluoxetine sensitivity experiment - and […]
TM4 increases channel opening which is a plausible explanation for the inverse inhibitory effect of phosphorylation of the extended M4 helix.
The molecular dynamics approaches are mostly outside of my expertise and so I cannot comment on the technical elements. However, the interaction network analysis supports previous models that upwards movement of TM4 is associated with opening of the SF gate and highlights previously identified and potential novel residues responsible. […]
results provide interesting advances which improve our understanding of TREK channel […]
We thank the reviewer for the positive evaluation of our work and the many helpful comments to improve the manuscript. The reviewer specific comments are addressed below:
- and this is an excellent opportunity to clarify some important outstanding questions in the […]
state. This is an interesting and important finding, which would help to explain TREK channel regulation in vivo. […]

The next experiment deals with hTREK-1. In words: Direct application of PKC inhibitor, HEK293 whole-cell. The format is cell-based, human. Particulars: 1.0 µM; HEK293 cells, whole-cell configuration; within 30 min; n = 6. How it is done: Further, we also tested the direct application of 1.0 µM of the PKC inhibitor BIM I to HEK293 cells (in whole-cell configuration) expressing hTREK-1. Similarly, under these conditions, TREK-1 channel currents were not altered within 30 min. (n = 6). Thus, it appears that under […]
of the PKC site. Unfortunately, it is not known which phosphatase mediates the dephosphorylation of the PKC site in TREK channels nor are pharmacological phosphatase activators known that could be used promote the dephosphorylation.
The interaction network analysis provides possible explanations for how TM4 movement is transduced to SF gate opening. As mentioned, this analysis highlights a number of residues […]
W326, R237 in Dong et al., 2015). The authors are well placed to determine whether mutation of these residues, in silico, destabilizes the down-state and to show how this might promote stabilization of the conductive SF. […]
through interaction network analysis and previous mutation studies, can aid in studying the conformational change from down- to up-state in the channel and how this is related to the conformational change in the SF. However, the timescale for the conformational movement in […]
2 channels. In only 3 out of 7 simulations, each lasting 3 μs, did we observe a complete transition from up to down. […]
well-suited for assessing the impact of mutations. […]

Another experiment has as its target T1, TREK-1 V322C (Homo sapiens, UniProt O95069, V322C).
T1 construct: expressed in transfected cells; host or cells: Xenopus laevis oocytes (cRNA injection), excised inside-out patches
T1 sequence (O95069 1-426 V322C): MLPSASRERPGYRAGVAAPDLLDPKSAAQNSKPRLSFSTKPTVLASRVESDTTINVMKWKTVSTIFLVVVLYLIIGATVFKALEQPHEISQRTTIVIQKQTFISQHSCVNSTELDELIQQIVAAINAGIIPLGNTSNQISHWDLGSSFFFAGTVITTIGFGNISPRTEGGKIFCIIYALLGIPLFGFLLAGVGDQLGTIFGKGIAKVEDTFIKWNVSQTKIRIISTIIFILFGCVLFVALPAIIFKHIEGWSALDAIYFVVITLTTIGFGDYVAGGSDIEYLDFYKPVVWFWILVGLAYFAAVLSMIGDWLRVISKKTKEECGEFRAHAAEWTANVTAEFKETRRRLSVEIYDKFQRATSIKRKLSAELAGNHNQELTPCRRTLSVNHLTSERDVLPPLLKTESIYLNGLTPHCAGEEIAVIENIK
In words: MTS probe modification, inside-out patch-clamp. The class given is cell-based. Particulars: MTS-ET+ 1 mM, symmetrical K+, -80 mV (Supplementary Fig. 2d). How it is done:
(§1) First, we measured WT TREK-1, WT TRAAK and TREK-2^* channels without modifiable cysteine residues as references. […] Note, that patch integrity and channel regulation were tested with either 1 mM tetra-pentyl-ammonium (TPenA) and a short pHi activation step. Next, we conducted systematic cysteine scanning mutagenesis of the entire pCt and examined the effect of charged and aliphatic MTS probes.
(§2) Xenopus laevis oocytes were surgically removed from anesthetized adult females, treated with type II collagenase (Sigma-Aldrich/Merck, Germany) and manually defolliculated. A solution containing the K^+ channel-specific cRNA at a desired concentration was injected into Dumont stage V - VI oocytes and subsequently incubated at 17 °C in a solution containing (mM): 54 NaCl, […], 2.4 NaHCO3, 0.82 MgSO4 x 7 H2O, 0.41 CaCl2, 0.33 Ca(NO3)2 x 4 H2O and 7.5 TRIS (pH 7.4 adjusted with NaOH/HCl) for 1 - 7 days before use. Patch-clamp recordings in an inside-out configuration under voltage-clamp conditions were performed at room temperature (22 - 24 °C). Patch pipettes were made from thick-walled borosilicate glass GB 200TF-8P (Science Products, Germany), had resistances of 0.2 - 0.5 MΩ (tip diameter of 10 - 25 µm) and filled with a pipette solution (in mM): 120 KCl, 10 HEPES and 3.6 CaCl2 (pH 7.4 adjusted with KOH/HCl). Intracellular bath solutions and compounds were applied to the cytoplasmic side of excised patches for the various K^+ channels via a gravity flow multi-barrel pipette system. The intracellular solution had the following composition (in mM): 120 KCl, 10 HEPES, 2 EGTA, and 1 Pyrophosphate (pH adjusted with KOH/HCl). Currents were recorded with an EPC10 amplifier (HEKA electronics, Germany) and sampled at 10 kHz or higher and filtered with 3 kHz (-3 dB) or higher as appropriate for the sampling rate.
(§3) Tetra-pentyl-ammonium chloride (TPenA) was purchased from Merck (Sigma-Aldrich), prepared as 100 mM stocks in intracellular recording solution, stored at −20 °C and diluted to a final concentration in intracellular recording solution before measurements. Decyl-MethaneThioSulfonate (Decyl-MTS), (2-(trimethylammonium)ethyl)MethaneThioSulfonate bromide (MTS-ET^+) and Sodium (2-sulfonatoethyl)MethaneThioSulfonate (MTS-ES^-) were purchased from Toronto Research Chemicals. MTS-ET^+ was directly dissolved to the desired concentration of 1 mM in the intracellular recording solution before each experiment. MTS-ET^+ was used immediately after dilution for maximally 5 min. Decyl-MTS and […] were prepared as 10 - 100 mM stocks in DMSO and diluted to the desired concentration before the measurements.
(§4) The fold current increase (fold activation) of a ligand (decyl-MTS) was calculated from the following equation:1 FoldactivationFA=Iactivated/Ibasal with Iactivated represents the stable current level in the presence of 100 µM decyl-MTS and Ibasal the measured current before application of the MTS probe.
(In general: In patch-clamp work, channel activity is measured electrically.)

Another experiment addresses T2, TREK-1 T318C (Homo sapiens, UniProt O95069, T318C).
T2 construct: expressed in transfected cells; host or cells: Xenopus laevis oocytes (cRNA injection), excised inside-out patches
T2 sequence (O95069 1-426 T318C): T1 sequence (O95069 1-426 V322C) with T318C, C322V
In words: MTS probe modification, inside-out patch-clamp. The class given is cell-based. The conditions noted are these: MTS-ET+ 1 mM, symmetrical K+, -80 mV (Supplementary Fig. 2d). How it is done:
as §1, §2, §3, §4

For a further experiment, the target named is T3, TREK-1 F325C (Homo sapiens, UniProt O95069, F325C).
T3 construct: expressed in transfected cells; host or cells: Xenopus laevis oocytes (cRNA injection), excised inside-out patches
T3 sequence (O95069 1-426 F325C): T1 sequence (O95069 1-426 V322C) with C322V, F325C
In words: MTS probe modification, inside-out patch-clamp. The class given is cell-based. The conditions noted are these: MTS-ET+ 1 mM, symmetrical K+, -80 mV (Supplementary Fig. 2d). How it is done: as §1, §2, §3, §4

For a further experiment, the target named is T4, TREK-2* (Homo sapiens, UniProt P57789).
T4 sequence (P57789 67-355 isoform P57789-4): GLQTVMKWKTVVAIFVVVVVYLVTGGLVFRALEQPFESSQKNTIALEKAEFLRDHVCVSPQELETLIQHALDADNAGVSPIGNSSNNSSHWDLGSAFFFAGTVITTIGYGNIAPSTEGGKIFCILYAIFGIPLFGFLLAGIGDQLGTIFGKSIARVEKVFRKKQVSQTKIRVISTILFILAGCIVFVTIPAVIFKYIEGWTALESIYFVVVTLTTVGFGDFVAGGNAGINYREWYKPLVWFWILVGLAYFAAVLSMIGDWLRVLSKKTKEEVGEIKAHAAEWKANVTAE
In words: Activation of truncated construct. The format is cell-based. Also on record: was truncated from WT and includes amino acids 67 - 355; expressed in transfected cells; host or cells: Xenopus laevis oocytes (cRNA injection, pFAW vector). Particulars: comparable to WT, peer review file. The text has this:
page 27: Answer: We agree with the reviewer that applying statistical tests to our simulation data would enhance the confidence in interpreting some of the results. However, in this study, due to the relatively large size of the systems that require extensive simulation time, we were limited to conducting only five to seven independent simulation runs for each setup. According to the checklist and recommendations provided by Nature Journal (PMID: 36918708), a minimum of three simulations per condition is advisable. Given that we only have data from these limited simulation runs, conducting a p-test is challenging. Nonetheless, as we noted in the main text, in all 5 simulations of the down-state, we observed a robust conformational change at the S1 binding site. Conversely, in all five up-state simulations, the SF remained a conductive conformation. […] Minor comments: Are there any differences in function between full-length TREK-2 and the TREK-2* construct? […] 22

Where a chain is given by its changes, count along the chain named.

Consider `CN(C)CCCn1cc(C2=C(c3c[nH]c4ccccc34)C(=O)NC2=O)c2ccccc21` [BIM I, Bisindolylmaleimide I], for which, in the experiment with WT hTREK-2, the “effect on current” value was “did not observe a current increase”. In addition, the “effect on TREK-1 channel currents” value with hTREK-1 is recorded as “not altered”.
Consider “(2-(trimethylammonium)ethyl)MethaneThioSulfonate bromide [MTS-ET^+]”, for which the “effect of charged MTS probe on activity” value at TREK-1 V322C, at TREK-1 T318C and at TREK-1 F325C was “channel inhibition” each time.
With `CCCCC/C=C\C/C=C\C/C=C\C/C=C\CCCC(=O)O` [arachidonic acid], on TREK-2*, the “activation” value was “activated”.
